Assay results reported in PubChem BioAssay (NCI).
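These data come from cells grown in 96-well plates and exposed to compound for 48 hours at five concentrations. At the GI50, growth is halved. Definition used: TGI = concentration required for complete inhibition of growth.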

Key:
Assay in all cases: inhibition of tumour cell growth, NCI panel, 48 h
SNB-19 CNS = test system: SNB-19 CNS
HOP-92 NSCLC = test system: HOP-92 NSCLC
SF-295 CNS = test system: SF-295 CNS
SN12C renal = test system: SN12C renal
NCI-H522 lung = test system: NCI-H522 lung
NCI-H226 lung = test system: NCI-H226 lung
DU-145 prostate = test system: DU-145 prostate
MOLT-4 leukemia = test system: MOLT-4 leukemia
OVCAR-4 ovarian = test system: OVCAR-4 ovarian
MCF7 breast = test system: MCF7 breast
TK-10 renal = test system: TK-10 renal
NCI/ADR-RES ovarian = test system: NCI/ADR-RES ovarian
HS 578T breast = test system: HS 578T breast
COLO 205 colon = test system: COLO 205 colon
UACC-257 melanoma = test system: UACC-257 melanoma
CAKI-1 renal = test system: CAKI-1 renal
SK-MEL-2 melanoma = test system: SK-MEL-2 melanoma
SF-268 CNS = test system: SF-268 CNS
MDA-MB-435 = test system: MDA-MB-435
SF-539 CNS = test system: SF-539 CNS
ACHN renal = test system: ACHN renal
OVCAR-3 ovarian = test system: OVCAR-3 ovarian
SNB-75 CNS = test system: SNB-75 CNS
IGROV1 ovarian = test system: IGROV1 ovarian
HCT-116 colon = test system: HCT-116 colon
786-0 renal = test system: 786-0 renal
PC-3 prostate = test system: PC-3 prostate
SK-OV-3 ovarian = test system: SK-OV-3 ovarian
CCRF-CEM leukemia = test system: CCRF-CEM leukemia
HT29 colon = test system: HT29 colon
NCI-H460 lung = test system: NCI-H460 lung
RPMI-8226 leukemia = test system: RPMI-8226 leukemia
K-562 leukemia = test system: K-562 leukemia
SR leukemia = test system: SR leukemia
T-47D breast = test system: T-47D breast
HOP-62 NSCLC = test system: HOP-62 NSCLC
UO-31 renal = test system: UO-31 renal
U251 CNS = test system: U251 CNS
SK-MEL-28 melanoma = test system: SK-MEL-28 melanoma
UACC-62 melanoma = test system: UACC-62 melanoma
KM12 colon = test system: KM12 colon
A498 renal = test system: A498 renal
SK-MEL-5 melanoma = test system: SK-MEL-5 melanoma
RXF 393 renal = test system: RXF 393 renal
SW-620 colon = test system: SW-620 colon
M14 melanoma = test system: M14 melanoma
NCI-H23 lung = test system: NCI-H23 lung
OVCAR-5 ovarian = test system: OVCAR-5 ovarian
HL-60(TB) leukemia = test system: HL-60(TB) leukemia
BT-549 breast = test system: BT-549 breast
MALME-3M melanoma = test system: MALME-3M melanoma
MDA-MB-231 breast = test system: MDA-MB-231 breast
A549 NSCLC = test system: A549 NSCLC
EKVX NSCLC = test system: EKVX NSCLC
HCC-2998 colon = test system: HCC-2998 colon
OVCAR-8 ovarian = test system: OVCAR-8 ovarian
LOX IMVI melanoma = test system: LOX IMVI melanoma
HCT-15 colon = test system: HCT-15 colon

`COc1ccc(OC)c(Nc2nc3ccccc3c3c2-c2ccc(OC)cc2C3=O)c1` gave a GI50 (SNB-19 CNS) of over 100 µM, a TGI (SNB-19 CNS) of over 100 µM and a GI50 (HOP-92 NSCLC) of over 100 µM. For the same molecule, the TGI (HOP-92 NSCLC) was over 100 µM, the GI50 (SF-295 CNS) was over 100 µM and the TGI (SF-295 CNS) was over 100 µM. It also gave a GI50 (SN12C renal) of over 100 µM, a TGI (SN12C renal) of over 100 µM and a GI50 (NCI-H522 lung) of over 100 µM. For the same molecule, the TGI (NCI-H522 lung) was over 100 µM, the GI50 (NCI-H226 lung) was over 100 µM and the TGI (NCI-H226 lung) was over 100 µM. The GI50 (DU-145 prostate) was over 100 µM, the TGI (DU-145 prostate) was over 100 µM and the GI50 (MOLT-4 leukemia) was over 100 µM. It also gave a TGI (MOLT-4 leukemia) of over 100 µM, a GI50 (OVCAR-4 ovarian) of over 100 µM and a TGI (OVCAR-4 ovarian) of over 100 µM. For the same molecule, the GI50 (MCF7 breast) was over 100 µM, the TGI (MCF7 breast) was over 100 µM and the GI50 (TK-10 renal) was over 100 µM. For the same molecule, the TGI (TK-10 renal) was over 100 µM, the GI50 (NCI/ADR-RES ovarian) was over 100 µM and the TGI (NCI/ADR-RES ovarian) was over 100 µM. The GI50 (HS 578T breast) was over 100 µM, the TGI (HS 578T breast) was over 100 µM and the GI50 (COLO 205 colon) was over 100 µM. It also gave a TGI (COLO 205 colon) of over 100 µM, a GI50 (UACC-257 melanoma) of over 100 µM and a TGI (UACC-257 melanoma) of over 100 µM. It also gave a GI50 (CAKI-1 renal) of over 100 µM, a TGI (CAKI-1 renal) of over 100 µM and a GI50 (SK-MEL-2 melanoma) of over 100 µM. The TGI (SK-MEL-2 melanoma) was over 100 µM, the GI50 (SF-268 CNS) was over 100 µM and the TGI (SF-268 CNS) was over 100 µM. For the same molecule, the GI50 (MDA-MB-435) was over 100 µM, the TGI (MDA-MB-435) was over 100 µM and the GI50 (SF-539 CNS) was over 100 µM. It also gave a TGI (SF-539 CNS) of over 100 µM, a GI50 (ACHN renal) of over 100 µM and a TGI (ACHN renal) of over 100 µM. The GI50 (OVCAR-3 ovarian) was over 100 µM, the TGI (OVCAR-3 ovarian) was over 100 µM and the GI50 (SNB-75 CNS) was over 100 µM. It also gave a TGI (SNB-75 CNS) of over 100 µM, a GI50 (IGROV1 ovarian) of over 100 µM and a TGI (IGROV1 ovarian) of over 100 µM. It also gave a GI50 (HCT-116 colon) of over 100 µM, a TGI (HCT-116 colon) of over 100 µM and a GI50 (786-0 renal) of over 100 µM. For the same molecule, the TGI (786-0 renal) was over 100 µM, the GI50 (PC-3 prostate) was over 100 µM and the TGI (PC-3 prostate) was over 100 µM. For the same molecule, the GI50 (SK-OV-3 ovarian) was over 100 µM, the TGI (SK-OV-3 ovarian) was over 100 µM and the GI50 (CCRF-CEM leukemia) was over 100 µM. It also gave a TGI (CCRF-CEM leukemia) of over 100 µM, a GI50 (HT29 colon) of over 100 µM and a TGI (HT29 colon) of over 100 µM. The GI50 (NCI-H460 lung) was over 100 µM, the TGI (NCI-H460 lung) was over 100 µM and the GI50 (RPMI-8226 leukemia) was over 100 µM. It also gave a TGI (RPMI-8226 leukemia) of over 100 µM, a GI50 (K-562 leukemia) of over 100 µM and a TGI (K-562 leukemia) of over 100 µM. The GI50 (SR leukemia) was 40.7 µM, the TGI (SR leukemia) was over 100 µM and the GI50 (T-47D breast) was over 100 µM. It also gave a TGI (T-47D breast) of over 100 µM, a GI50 (HOP-62 NSCLC) of over 100 µM and a TGI (HOP-62 NSCLC) of over 100 µM. The GI50 (UO-31 renal) was over 100 µM, the TGI (UO-31 renal) was over 100 µM and the GI50 (U251 CNS) was over 100 µM. For the same molecule, the TGI (U251 CNS) was over 100 µM, the GI50 (SK-MEL-28 melanoma) was over 100 µM and the TGI (SK-MEL-28 melanoma) was over 100 µM. The GI50 (UACC-62 melanoma) was over 100 µM, the TGI (UACC-62 melanoma) was over 100 µM and the GI50 (KM12 colon) was over 100 µM. For the same molecule, the TGI (KM12 colon) was over 100 µM, the GI50 (A498 renal) was over 100 µM and the TGI (A498 renal) was over 100 µM. For the same molecule, the GI50 (SK-MEL-5 melanoma) was over 100 µM, the TGI (SK-MEL-5 melanoma) was over 100 µM and the GI50 (RXF 393 renal) was over 100 µM. It also gave a TGI (RXF 393 renal) of over 100 µM, a GI50 (SW-620 colon) of over 100 µM and a TGI (SW-620 colon) of over 100 µM. The GI50 (M14 melanoma) was over 100 µM, the TGI (M14 melanoma) was over 100 µM and the GI50 (NCI-H23 lung) was over 100 µM. It also gave a TGI (NCI-H23 lung) of over 100 µM, a GI50 (OVCAR-5 ovarian) of over 100 µM and a TGI (OVCAR-5 ovarian) of over 100 µM. It also gave a GI50 (HL-60(TB) leukemia) of over 100 µM, a TGI (HL-60(TB) leukemia) of over 100 µM and a GI50 (BT-549 breast) of over 100 µM. The TGI (BT-549 breast) was over 100 µM, the GI50 (MALME-3M melanoma) was over 100 µM and the TGI (MALME-3M melanoma) was over 100 µM. For the same molecule, the GI50 (MDA-MB-231 breast) was over 100 µM, the TGI (MDA-MB-231 breast) was over 100 µM and the GI50 (A549 NSCLC) was over 100 µM. It also gave a TGI (A549 NSCLC) of over 100 µM, a GI50 (EKVX NSCLC) of over 100 µM and a TGI (EKVX NSCLC) of over 100 µM. It also gave a GI50 (HCC-2998 colon) of over 100 µM, a TGI (HCC-2998 colon) of over 100 µM and a GI50 (OVCAR-8 ovarian) of over 100 µM. It also gave a TGI (OVCAR-8 ovarian) of over 100 µM, a GI50 (LOX IMVI melanoma) of over 100 µM and a TGI (LOX IMVI melanoma) of over 100 µM. For the same molecule, the GI50 (HCT-15 colon) was over 100 µM and the TGI (HCT-15 colon) was over 100 µM.
